Results: patent US12235278B2, “Compositions and methods for evaluation of antiplatelet drug sensitivity” (Beth Israel Deaconess Medical Center, Inc., priority 2018, dated 2025)
Entries after “also recorded” stand apart in the source; their conditions may differ.

Key:
Type in all cases: cell-based
[1] = test system: Drp1-Ser616 phosphorylation; experiment: Western blot of Drp1 Ser616 phosphorylation in platelets; settings: for Effect on SFLLRN-induced (PAR1-mediated) Drp1-Ser616 phosphorylation: platelets; for Drp1 phosphorylation at Ser616 elicited by the agent: platelets incubated with the agent
[2] = test system: Drp1-Ser616 phosphorylation; experiment: Drp1-Ser616 phosphorylation assay in whole blood; settings: for Effect on SFLLRN-induced phospho-Drp1-Ser616 signal: whole blood; for Stimulation of Drp1-Ser616 phosphorylation: whole blood (thrombin: whole blood and platelet rich plasma)
[3] = test system: Drp1-Ser616 phosphorylation; experiment: MAP kinase inhibition studies, ELISA of agonist-induced Drp1-Ser616 phosphorylation in twice washed platelets; settings: agonists SFLLRN, U46619, collagen, ADP or AYPGKF; SB203580 20 μM, PD0325901 5 μM, SP600125 5 μM
Description: Using twice washed platelets, 400 μL aliquots were incubated at 37° C. for 30 min with SB203580 (20 μM), PD0325901 (5 μM), SP600125 (5 μM) or left untreated and then activated with respective agonist for 10 min at 37° C. Subsequently, 100 μL of 5×RIPA buffer was added and samples were lysed on ice for minimum of 15 min. Samples were stored at −80° C. until assayed by ELISA.
(§1) Capture antibody (Ms Drp1 mAb) diluted in Tris-buffered saline (TBS) was incubated on plates at RT (2 hrs) or at 4° C. overnight. […] Wells were blocked with 3% BSA in TBST for a minimum of 1.5 hrs. […] Wells were again washed with TBST and incubated with either Rb Drp1 or p-Drp1 (Ser616) mAb at RT for 1 hr.

[4] = test system: Drp1-Ser616 phosphorylation; experiment: Arachidonic acid-induced Drp1-Ser616 phosphorylation in platelets, ELISA dose response; settings: Platelet; [arachidonic acid]=10 μg/mL; read-out: IC50, inhibition of arachidonic acid-induced phosphorylation of Drp1-Ser616
Description: Dilutions of Tyrode's buffer+3 mM aspirin were prepared. A modified platelet wash protocol was then performed. PRP [supplemented with 20% ACD (v/v) and PGE1 (1 μM)] was spun at 800 g for 12 min. After removal of the supernatant, platelet pellet was resuspended in Tyrode's buffer and allowed to rest at 37° C. for minimum of 25 min. Platelets were counted by Hemavet and were again supplemented with ACD and PGE1 before being aliquoted into microcentrifuge tubes and spun at 800 g for 12 min. Aliquots were of sufficient volume to permit a final platelet count of approximately 4×10^5/μL when platelet pellet was resuspended in 400 μL of Tyrode's buffer or Tyrode's buffer/aspirin dilution. After resuspension, samples were incubated at 37° C. for 1 hr before being activated for 10 min at 37° C. with arachidonic acid (Bio Data Corp. Horsham, PA) at a final concentration of 10 μg/mL. Samples were lysed with 100 μL 5×RIPA buffer on ice for a minimum of 15 min before being stored at −80° C. until assayed by ELISA.
as §1

[5] = test system: Drp1-Ser616 phosphorylation; experiment: Drp1 ratio assay with chemiluminescence format; settings: ADP 20 μM; for Time to maximum Drp1 ratio after exposure to agonist: arachidonic acid 500 μg/mL, SFLLRN 25 μM, elevated by 5 minutes
Description: Samples were subsequently lysed and assessed by either colorimetric or chemiluminescence ELISAs. […] Samples were activated with the indicated platelet agonist [A: ADP (20 μM); […] Samples were left at room temperature for the indicated amount of time prior to freezing (−80° C.) and were subsequently analyzed using the Drp1 ratio assay with a chemiluminescence format. […] FIGS. 12A-12C show activation time studies with various platelet agonists. Platelets were exposed to agonists and subsequently analyzed using the Drp1 ratio assay with a chemiluminescence format.

[6] = test system: Drp1-Ser616 phosphorylation; experiment: SFLLRN-induced Drp1-Ser616 phosphorylation in washed platelets, ELISA dose response (phospho-Drp1-Ser616/total Drp1); settings: Platelet; read-out: IC50, inhibition of SFLLRN-induced Drp1-Ser616 phosphorylation
Description: Serial dilutions of Vorapaxar and Cangrelor were prepared in DMSO. […] Vehicle only samples were also prepared and incubated at 37° C. Samples were subsequently lysed with 5×RIPA buffer and stored at −80° C. until assayed by ELISA.
as §1

[7] = test system: Drp1-Ser637 phosphorylation; experiment: Western blot of Drp1 Ser637 phosphorylation in platelets
platelet aggregation = experiment: Platelet aggregometry, ADP-activated platelets; settings: ADP 20 μM, compared with Drp1 ratio assay

## Cn1cc(C2=C(c3cn(CCCSC(=N)N)c4ccccc34)C(=O)NC2=O)c2ccccc21 [Ro 31-8220]
[1]
  Effect on SFLLRN-induced (PAR1-mediated) Drp1-Ser616 phosphorylation: failed to inhibit

## COC(=O)[C@H](c1ccccc1Cl)N1CCc2sccc2C1 [clopidogrel]
[2]
  Effect on SFLLRN-induced phospho-Drp1-Ser616 signal: inhibited

## thrombin
[2]
  Stimulation of Drp1-Ser616 phosphorylation: significant increases

## C[S+]([O-])c1ccc(-c2nc(-c3ccncc3)c(-c3ccc(F)cc3)[nH]2)cc1 (stereo not shown) [SB203580]
[2]
  Effect on SFLLRN-induced phospho-Drp1-Ser616 signal: inhibited
[3]
  Effect on agonist-induced Drp1-Ser616 phosphorylation: potently blocked
[1]
  Effect on SFLLRN-induced (PAR1-mediated) Drp1-Ser616 phosphorylation: inhibited

## collagen
[1]
  Drp1 phosphorylation at Ser616 elicited by the agent: Phosphorylation of Drp1 at S616 was observed

## CC(=O)Oc1ccccc1C(=O)O [aspirin, acetylsalicylic acid]
[4]
  IC50: ~1000 nM

## CCCCC/C=C\C/C=C\C/C=C\C/C=C\CCCC(=O)O [arachidonic acid]
[2]
  Stimulation of Drp1-Ser616 phosphorylation: significant stimulation
[5]
  Time to maximum Drp1 ratio after exposure to agonist: approximately 12. 5 minutes

## Nc1ncnc2c1ncn2[C@@H]1O[C@H](COP(=O)(O)OP(=O)(O)O)[C@@H](O)[C@H]1O [ADP]
[5]
  Time to maximum Drp1 ratio after exposure to agonist: approximately 12. 5 minutes
[1]
  Drp1 phosphorylation at Ser616 elicited by the agent: resulted in 5616-Drp1 phosphorylation

## O=C(NOC[C@H](O)CO)c1ccc(F)c(F)c1Nc1ccc(I)cc1F [PD0325901]
[3]
  Effect on agonist-induced Drp1-Ser616 phosphorylation: modest inhibition

## SFLLRN
[2]; following activation of platelets by SFLLRN (FIG. 6C)
  Time at which phospho-Drp1-Ser616 signal reaches peak: 15 min
[2]; stimulation of whole blood
  Increase in phospho-Drp1-Ser616 to total Drp1: greater than 2 fold
[5]
  Time to maximum Drp1 ratio after exposure to agonist: approximately 12. 5 minutes
[1]
  Drp1 phosphorylation at Ser616 elicited by the agent: Phosphorylation of Drp1 at S616 was observed

## CNc1nc(Cl)nc2c1ncn2CC(COC(=O)C(C)(C)C)COC(=O)C(C)(C)C [MRS 2395]
[1]; platelets incubated with ADP
  Effect on ADP-induced Drp1-Ser616 phosphorylation: inhibited

## O=C1CCc2cc(OCCCCc3nnnn3C3CCCCC3)ccc2N1 [cilostazol]
[1]
  Effect on SFLLRN-induced (PAR1-mediated) Drp1-Ser616 phosphorylation: blocks; also recorded: sensitive; also recorded: prevents phophorylation at Ser616

## CCCCC[C@H](O)/C=C/[C@@H]1[C@@H](C/C=C\CCCC(=O)O)[C@H]2CO[C@@H]1C2 [U46619]
[2]
  Stimulation of Drp1-Ser616 phosphorylation: significant stimulation
[1]
  Drp1 phosphorylation at Ser616 elicited by the agent: Phosphorylation of Drp1 at S616 was observed

## CCOC(=O)N[C@@H]1CC[C@@H]2[C@@H](C1)C[C@H]1C(=O)O[C@H](C)[C@H]1[C@H]2/C=C/c1ccc(-c2cccc(F)c2)cn1 [vorapaxar]
[2]
  Effect on SFLLRN-induced phospho-Drp1-Ser616 signal: inhibited
[6]
  IC50: ~5 nM

## Oc1c2ccccc2c2c3c(cccc13)N=N2 [SP600125]
[3]
  Effect on agonist-induced Drp1-Ser616 phosphorylation: failed to inhibit

## CCCCCCOC(=O)[C@]1(O)C[C@@H]2O[C@@]1(C)n1c3ccccc3c3c4c(c5c6ccccc6n2c5c31)C(=O)NC4 [KT5720]
[7]
  Effect on forskolin-mediated Drp1-Ser637 phosphorylation: completely abolished

## CSCCNc1nc(SCCC(F)(F)F)nc2c1ncn2[C@@H]1O[C@H](COP(=O)(O)OP(=O)(O)C(Cl)(Cl)P(=O)(O)O)[C@@H](O)[C@H]1O [cangrelor]
[5]; compared with platelet aggregometry
  Sensitivity of Drp1 ratio assay to inhibition: equally sensitive
[6]
  IC50: ~2 nM
Platelet aggregation
  Sensitivity of platelet aggregometry to inhibition: equally sensitive
